Values quoted from earlier work in patent US8853170B2, “Compositions comprising sugar-cysteine products” (Max International, LLC, priority 2010, dated 2014).

What was measured:
[1] = tested on: irradiation-induced bowel injury; conditions: mice, doses of 1 g/kg
[2] = tested on: mice exposed to cyclophosphamide; conditions: 8 mmol/kg
glutathione levels = conditions: mice, 8 mmol/kg i.p.
[3] = tested on: acetaminophen hepatic and renal toxicity; conditions: mice, doses of 2 g/kg
healthy humans = conditions: orally 8-10 g per day by an adult
humans = conditions: ribose administered directly to humans
ATP levels = conditions: dogs subjected to ischemia, about 3 g/day for at least 5 days

SMILES	protection against irradiation-induced bowel injury [1]	delivery of protective amounts of cysteine [2]	increased glutathione levels, heart (glutathione levels; heart) [times]	increased glutathione levels, muscle tissue (glutathione levels; muscle tissue) [times]	protection against acetaminophen hepatic and renal toxicity [3]	exercise capacity (healthy humans)	toxicity (humans)	ATP levels (ATP levels)
O=C(O)[C@@H]1CSC(C(O)C(O)C(O)CO)N1 (stereo partly drawn) [RibCys, 2(R,S)-D-ribo-(1′,2′,3′,4′-tetrahydroxybutyl)thiazolidine-4(R)-carboxylic acid]	protect mice against irradiation-induced bowel injury	deliver effective protective amounts of cysteine	1.5	2.5	protect mice against acetaminophen hepatic and renal toxicity	–	–	–
O=C[C@H](O)[C@H](O)[C@H](O)CO [ribose]	–	–	–	–	–	increase exercise capacity	essentially non-toxic over wide dosage ranges	effectively restored and maintained ATP levels
